From patent US9006459B2, “Fluorescent markers and use thereof for labeling specific protein targets” (University of Ottawa, priority 2010, dated 2015)

Key:
[1] = Photophysical properties (absorbance/excitation and fluorescence emission maxima, fluorescence intensity); assay type: physicochemical; conditions: for initial fluorescence intensity: before reaction with MPA
Method: (§1) Spectroscopic characterization of fluorogen 5 included absorbance and fluorescence emission maxima as well as the fluorescence enhancement (FE) ratio. The spectroscopic characteristics were evaluated in two solvent systems (DMSO and HEPES (pH 7.4)/5% DMSO). The FE ratio determination was carried out by reacting 5 with excess mercaptopropionic acid (MPA) and then dividing the final fluorescence by the initial fluorescence intensity, at a specific fluorogen concentration.
(§2) Absorbance spectra were recorded at 25° C., with a Cary-100 spectrometer. Emission spectra and fluorescence intensity measurements were recorded at 25° C. with a Cary Eclipse fluorometer. Excitation and emission slits were fixed at 5 nm

[2] = Fluorescence enhancement (FE) ratio upon reaction with excess MPA; assay type: physicochemical; conditions: for FE (fluorescence enhancement ratio): HEPES (pH 7.4)/DMSO 5%, final divided by initial fluorescence intensity
Method: as §1
Determination of Fluorescence Enhancement Ratios
as §2
3-Mercaptopropionic acid (50 eq) was added to a 1 to 4 mM DMSO solution of fluorogen. The resulting mixture was stirred at 25° C., in the dark for 18 hours after which fluorescence intensities of a dilution in HEPES buffer (pH 7.4) were recorded. Final fluorescence intensity was then divided by the initial florescence intensity at the same fluorogen concentration leading to the fluorescence enhancement ratio for the fluorogen.

Row | Molecule | melting point [°C] | initial fluorescence intensity ([1]; aqueous media (HEPES/5% DMSO)) | λem MPA adduct ([1]; di-MPA adduct in DMSO) [nm] | λex MPA adduct ([1]; di-MPA adduct in DMSO) [nm] | λem MPA adduct ([1]; di-MPA adduct in HEPES/DMSO 5%) [nm] | λex MPA adduct ([1]; di-MPA adduct in HEPES/DMSO 5%) [nm] | λem ([1]; fluorogen in DMSO) [nm] | λex ([1]; fluorogen in DMSO) [nm] | λem ([1]; fluorogen in HEPES/DMSO 5%) [nm] | λex ([1]; fluorogen in HEPES/DMSO 5%) [nm] | initial fluorescence intensity ([1]; pure DMSO) | fluorescence intensity increase upon reaction with MPA ([2]; pure DMSO) | FE (fluorescence enhancement ratio) [2]
1 | CC1=CC(=O)N(c2cc(NS(=O)(=O)c3cccc4c(N(C)C)cccc34)cc(N3C(=O)C=C(C)C3=O)c2)C1=O [Fluorogen 5, N-Dansyl-3,5-di-(3-methylmaleimido)aniline] | 230 | at the level of the background noise | 540 | 350 | 520 | 325 | 540 | 345 | 520 | 325 | approximately 2 | over 300 fold | 
2 | 8-(2′,6′-di-((4″-(3-methylmaleimido)phenyl)ethynyl))-4,4-difluoro-4-bora-3a,4a-diaza-s-indacene [Fluorogen 17] |  |  |  |  |  |  |  |  |  |  |  |  | 6.4
3 | 8-(3′,5′-di-(3-methylmaleimido)-phenyl-4,4-difluoro-4-bora-3a,4a-diaza-s-indacene [Fluorogen 13] |  |  |  |  | 514 | 510 |  |  | 514 | 510 |  |  | 3.5
4 | COc1ccc2cc(C(=O)NCc3cc(N4C(=O)C=C(C)C4=O)cc(N4C(=O)C=C(C)C4=O)c3)c(=O)oc2c1 [Fluorogen 11, 7-Methoxy-3-(3,5-di-(3-methylmaleimido)benzyl)aminocarbonyl coumarin] |  |  |  |  | 404 | 347 |  |  | 404 | 347 |  |  | 6.4
